{"source": "patent US5439930A", "about": "“Biologically active n-acylprolydipeptides having antiamnestic, antihypoxic and anorexigenic effects” (Russian-American Institute for New Drug Development, priority 1992, dated 1995)", "key": {"[1]": {"test_system": "memory decline evoked by maximal electroshock (MES) in randomly bred male albino rats", "assay": "Passive avoidance step-through, amnesia by maximal electroshock (MES)", "format": "in vivo", "protocol": "(§1) Compounds according to the present invention, including the compounds described in Examples 1-11, were checked for their ability to prevent memory decline evoked by maximal electroshock (MES) or scopolamine in the passive avoidance step-through paradigm (equipment of Laffaette Co., USA). The experiments described herein (Examples 12, 13, 15, and 19) were carried out using randomly bred male albino rats of a weight of approximately 180-220 g. […] Amnesia was produced by transcorneal maximal electroshock immediately after learning or scopolamine (1 mg/kg, subcutaneously) administration 30 min. before learning. The retention was tested 24 hours later by the measurement of latency of the entering of the dark compartment.\n(§2) The degree of antiamnestic activity was estimated according to Buttler's modified formula: [formula]\n(§3) The higher the magnitude of this indicator the more is the antiamnestic activity."}, "[2]": {"test_system": "memory decline evoked by scopolamine in randomly bred male albino rats", "assay": "Passive avoidance step-through, amnesia by scopolamine", "format": "in vivo", "conditions": "0.1 mg/kg 15 min before learning", "protocol": "as §1, §2, §3"}, "outbred albino male mice": {"test_system": "outbred albino male mice", "assay": "Acute habituation of locomotor activity (Optovarimex)", "format": "in vivo", "protocol": "The effect of Compound I on acute habituation of locomotor activity was estimated according to diminution of locomotions during 30 minutes. Experiments were performed on outbred albino male mice (18-22 g) placed in groups of 10 animals in registration cage (Optovarimex, Colomb., USA)."}, "[3]": {"test_system": "rat's offspring damaged by prenatal alcoholization", "assay": "Active avoidance learning of offspring after prenatal alcoholization", "format": "in vivo, rats", "protocol": "(§4) The cognitive impairment in the rat's offspring was provoked by prenatal alcoholization or prenatal hypoxia. Prenatal alcoholization was achieved by peroral administration of 5 g/kg/day (25% solution) ethanol to pregnant female rats during whole pregnancy. To achieve prenatal hypoxia the rats on the 15th day of pregnancy were placed into hypobaric barometric chamber (the \"elevating\" up 8500 m altitude; exposition for 2 hours).\n(§5) The treatment of the offspring was performed from 8th day to 20th day. Compound I was administered in the dose of 0.1 mg/kg/day subcutaneously. The testing was performed on two-month old rats.\n(§6) It has been established that both kinds of damage (alcoholization, hypoxia) caused learning disorders in active avoidance test. Early postnatal administration of Compound I restored learning activity (Table 9)."}, "[4]": {"test_system": "rat's offspring damaged by prenatal hypoxia", "assay": "Active avoidance learning of offspring after prenatal hypoxia", "format": "in vivo, rats", "protocol": "as §4, §5, §6"}, "24-month Wistar rats [5]": {"test_system": "24-month Wistar rats", "assay": "Locomotor activity and habituation in aged rats (Optovarimex)", "format": "in vivo", "protocol": "(§7) The influence of Compound I on age-related mental decline was studied in experiments on 24-month Wistar rats. The substance was administered chronically in the dose of 0.1 mg/kg/day during 24 days, intraperitoneally before the testing and 14 days during testing.\nRegistration of the locomotor activity in the Optovarimex multichannel analyzer has shown that Compound I increased the initial horizontal activity being administered chronically. […] This test is suitable for the study of nootropics. In the control group the coefficient of the habituation was 0.29."}, "24-month Wistar rats [6]": {"test_system": "24-month Wistar rats", "assay": "Passive avoidance retention in aged rats", "format": "in vivo", "protocol": "as §7\nChronic administration of Compound I facilitated the retention tested 24 hours and especially 14 days after learning in passive avoidance test (Table 11). It is evident from these experiments that Compound I is able to improve amnestic function in the old rats."}, "[7]": {"assay": "Body weight and food consumption", "format": "in vivo, rats", "protocol": "The influence of Compound I on body weight and food consumption was studied in the experiments on the outbred rats. The substance, administered during 3 weeks in dose of 0.1 mg/kg/day intraperitoneally slowed the dynamics of weight increase in comparison to control: the increase of the weight (in %% to the initial one) was 12% in the treated group and 24% in the control group.\nThe amount of the consumed chow checked between 19th and 21st days was less for treated animals (39.5 g/day/rat) than for control ones (68.6 g/day/rat)."}, "outbred male mice": {"test_system": "outbred male mice", "assay": "Gross behavior and acute toxicity", "format": "in vivo", "protocol": "Compound I was checked for gross behavior and acute toxicity in outbred male mice (18-22 g).\nIn the dose of 1000 mg/kg compound I caused excitement in 50% of animals. In the dose of 5000 mg/kg i.p. compound I caused death in 50% of animals."}, "[8]": {"conditions": "day 1 of learning, 0.1 mg/kg/day s.c. from 8th to 20th day"}}, "note": "Where a SMILES comes first, the peptide text is derived from it. The star is where a group is joined. PhAc = O=C(Cc1ccccc1)*"}
{"compound": "CCOC(=O)CNC(=O)[C@@H]1CCCN1C(=O)Cc1ccccc1", "note": "[Compound I, N-phenacetyl-L-prolylglycine ethyl ester] (PhAc-Pro-Gly-OEt)", "values": [{"measurement": "Latency (sec.) Amnesia + subst.", "setting": "[1]; 0.1 mg/kg i.p. 15 min before training, MES after learning, retention 24 h later", "value": 25, "unit": "s"}, {"measurement": "AA % (antiamnestic activity, Butler's modified formula)", "setting": "[1]; 0.1 mg/kg i.p. 15 min before training, MES amnesia", "value": 36, "unit": "%"}, {"measurement": "Antiamnestic activity (Aa)", "setting": "[1]; 0.1 mg/kg per os, MES amnesia", "value": 19, "unit": "%"}, {"measurement": "Antiamnestic activity (Aa)", "setting": "[1]; 0.3 mg/kg per os, MES amnesia", "value": 19, "unit": "%"}, {"measurement": "Antiamnestic activity (Aa)", "setting": "[1]; 0.4 mg/kg per os, MES amnesia", "value": 23, "unit": "%"}, {"measurement": "Antiamnestic activity (Aa)", "setting": "[1]; 0.5 mg/kg per os, MES amnesia", "value": 43, "unit": "%"}, {"measurement": "Antiamnestic activity (Aa)", "setting": "[1]; 0.7 mg/kg per os, MES amnesia", "value": 52, "unit": "%"}, {"measurement": "Antiamnestic activity (Aa)", "setting": "[1]; 0.9 mg/kg per os, MES amnesia", "value": 36, "unit": "%"}, {"measurement": "Antiamnestic activity (Aa)", "setting": "[1]; 1.0 mg/kg per os, MES amnesia", "value": 10, "unit": "%"}, {"measurement": "Antiamnestic activity (Aa)", "setting": "[1]; 1.2 mg/kg per os, MES amnesia", "value": 16, "unit": "%"}, {"measurement": "Antiamnestic activity (Aa)", "setting": "[1]; 1.5 mg/kg per os, MES amnesia", "value": 10, "unit": "%"}, {"measurement": "Aa (antiamnestic activity)", "setting": "[2]; scopolamine 1 mg/kg s.c.", "value": 55.5}, {"measurement": "Latency (sec.) Scopolamine + substance", "setting": "[2]; scopolamine 1 mg/kg s.c. 30 min before trial", "value": 64.1, "unit": "s"}, {"measurement": "Habituation index (motor activity last 5 min / first 5 min of recording)", "setting": "outbred albino male mice; 0.05 mg/kg, 15 min before registration", "value": 30, "unit": "%"}, {"measurement": "Habituation index", "setting": "outbred albino male mice; 0.1 mg/kg", "value": 10, "unit": "%"}, {"measurement": "Habituation index", "setting": "outbred albino male mice; 0.5 mg/kg", "value": 15, "unit": "%"}, {"measurement": "Habituation index", "setting": "outbred albino male mice; 2.5 mg/kg", "value": 25, "unit": "%"}, {"measurement": "Habituation index", "setting": "outbred albino male mice; 5.0 mg/kg", "value": 27, "unit": "%"}, {"measurement": "Initial locomotor activity", "setting": "outbred albino male mice; dose range 0.05-5.0 mg/kg", "value": "without changing of initial locomotor activity"}, {"measurement": "Rats with reflex of active avoidance", "setting": "[3]; [8]", "value": 0, "unit": "%"}, {"measurement": "Rats with reflex of active avoidance", "setting": "[3]; day 1 of retention", "value": 78, "unit": "%"}, {"measurement": "Rats with reflex of active avoidance", "setting": "[3]; day 2 of learning", "value": 0, "unit": "%"}, {"measurement": "Rats with reflex of active avoidance", "setting": "[3]; day 2 of retention", "value": 89, "unit": "%"}, {"measurement": "Rats with reflex of active avoidance", "setting": "[3]; day 3 of learning", "value": 55, "unit": "%"}, {"measurement": "Rats with reflex of active avoidance", "setting": "[3]; day 4 of learning", "value": 82, "unit": "%"}, {"measurement": "Rats with reflex of active avoidance", "setting": "[4]; [8]", "value": 0, "unit": "%"}, {"measurement": "Rats with reflex of active avoidance", "setting": "[4]; day 2 of learning", "value": 0, "unit": "%"}, {"measurement": "Rats with reflex of active avoidance", "setting": "[4]; day 3 of learning", "value": 25, "unit": "%"}, {"measurement": "Rats with reflex of active avoidance", "setting": "[4]; day 4 of learning", "value": 68, "unit": "%"}, {"measurement": "Rats with reflex of active avoidance", "setting": "[4]; day 5 of learning", "value": 88, "unit": "%"}, {"measurement": "Coefficient of habituation (ratio - 5th min/1st min)", "setting": "24-month Wistar rats [5]; 0.1 mg/kg/day i.p. chronically", "value": 0.03}, {"measurement": "Locomotor activity (counts)", "setting": "24-month Wistar rats [5]; 1st min. of registration, 0.1 mg/kg/day i.p. chronically", "value": 422, "unit": "counts"}, {"measurement": "Locomotor activity (counts)", "setting": "24-month Wistar rats [5]; 5th min. of registration", "value": 13, "unit": "counts"}, {"measurement": "Passive avoidance test (latency, sec)", "setting": "24-month Wistar rats [6]; 24 hours after learning", "value": 128, "unit": "s"}, {"measurement": "Passive avoidance test (latency, sec)", "setting": "24-month Wistar rats [6]; 14 days after learning", "value": 132, "unit": "s"}, {"measurement": "Increase of the weight (in %% to the initial one)", "setting": "[7]; 0.1 mg/kg/day i.p. during 3 weeks", "value": 12, "unit": "%"}, {"measurement": "Amount of the consumed chow", "setting": "[7]; between 19th and 21st days, 0.1 mg/kg/day i.p.", "value": 39.5, "unit": "g/day/rat"}, {"measurement": "Stimulating effect of amphetamine", "setting": "outbred male mice; 25 mg/kg", "value": "diminished the stimulating effect of amphetamine"}, {"measurement": "Rectal temperature", "setting": "outbred male mice; 1-10 mg/kg i.p.", "value": "did not change rectal temperature"}, {"measurement": "Spontaneous motor activity", "setting": "outbred male mice; 1-10 mg/kg i.p.", "value": "neither stimulated nor depressed the spontaneous motor activity"}, {"measurement": "Stimulating effect of amphetamine on motor activity", "setting": "outbred male mice; 1-10 mg/kg i.p.", "value": "did not enhance the stimulating effect of amphetamine"}, {"measurement": "Excitement, % of animals", "setting": "outbred male mice; 1000 mg/kg", "value": 50, "unit": "%"}, {"measurement": "Death, % of animals", "setting": "outbred male mice; 5000 mg/kg i.p.", "value": 50, "unit": "%"}, {"measurement": "Lethality at 24 hours", "setting": "outbred male mice; 500-3000 mg/kg i.p.", "value": "did not cause lethality"}, {"measurement": "General condition (gross behavior)", "setting": "outbred male mice; up to the dose of 500 mg/kg", "value": "did not disturb the general condition"}, {"measurement": "Motor coordination (rota rod test)", "setting": "outbred male mice; up to the dose of 500 mg/kg", "value": "did not change motor coordination"}]}
